Assays:
[1] = test system: epileptiform burst activity in hippocampal slices (Mg2+-free model); test: Mg2+-free in vitro epileptiform model in hippocampal brain slices (multi-electrode array); format: cell-based, Wistar rats
Description: (§1) Use of isolated CBDV in two in vitro epileptiform models in hippocampal brain slices
(§2) Hippocampal slices were produced acutely from P>21 Wistar rats and activity recorded by multi-electrode arrays (MEA).
(§3) To induce epileptiform activity, either Mg^2+ was removed (Mg^2+-free model) or 100 μM 4-aminopyridine was added (4-AP model). 30 min after epileptiform burst activity was established, CBDV was added cumulatively (1, 10, 100 μM; 30 min each).
(§4) The effects of CBDV on epileptiform burst amplitude and duration were measured (Table 2.1).

[2] = test system: epileptiform burst activity in hippocampal slices (4-AP model); test: 4-AP in vitro epileptiform model in hippocampal brain slices (multi-electrode array); format: cell-based, Wistar rats
Description: as §1, §2, §3, §4

PTZ-induced seizures = test: CBDV with standard anti-epileptic drugs in the PTZ model of generalised seizures; format: in vivo, Wistar rats
Description: As described in Example 2 above. Varying doses of the SAED's ethosuximide and valproate were tested in combination to isolated CBDV at a dose of 200 mg/kg.

[3] = test system: pilocarpine-induced seizures; test: Pilocarpine model of epilepsy; format: in vivo; details: CBDV 50 and 100 mg/kg IP; pilocarpine 380 mg/kg IP
Description: Isolated CBDV was injected intra-peritoneally (IP) in the standard vehicle (1:1:18 ethanol:Cremophor:0.9%^w/v NaCl) at doses of 50, 100 and 200 mg/kg alongside animals that received vehicle alone at a matched volume. 15 minutes later methylscopolamine (1 mg/kg; to reduce peripheral muscarinic effects of pilocarpine) was administered followed, 45 minutes later by pilocarpine (380 mg/kg, IP) administration.

[4] = test system: pilocarpine-induced seizures; test: CBDV with standard anti-epileptic drugs in the pilocarpine model of epilepsy; format: in vivo
Text: These two drugs are representative of two classes of anti-convulsants which have different mechanisms of action.

motor function = test: Linearly accelerating rotarod test of motor function; format: in vivo, rats; details: for time remaining on the rotarod (latency to fall): 60 minutes after administration, vehicle 111.6 seconds
Description: Each animal received either CBDV (100 or 200 mg/kg, n=10 for each group) or vehicle (2:1:17 Cremophor:ethanol:saline [n=12] or saline [n=11]) on a given experimental day. Experimental test days were separated by a two day rest period to allow for clearance of previous compounds. The order of drug administration was randomised using a standard Latin square design.
60 minutes after CBDV or vehicle administration, animals were placed on a linearly accelerating rotarod (Panlab/Harvard Apparatus, Holliston, USA) that increased in speed from 4 to 40 rpm over a 300 second period. An accelerating protocol was employed to eliminate the need for habituation to the rotarod, minimising divergence in the results obtained for each animal owing to disproportionate improvements in performance. Each test ended when the animal fell from the rotarod, with each animal performing three accelerating rotarod runs per experimental day. Animals were allowed a 5 minute recovery between tests to prevent fatigue-induced declines in performance. Mean latency in seconds to fall from the rotarod was compared between vehicle control and CBDV groups to assess motor function.
To assess whether there were significant effects on motor function between the two different vehicle treatments, we subjected the data to Mann-Whitney U test. Lack of significance in this analysis would allow us to combine vehicle groups thereby reducing duration of testing (i.e. each rat would undertake only one vehicle treatment test day rather than two). For analysis of CBDV effects on motor function, data were subjected to a between-subjects 1-way ANOVA with drug concentration as the main factor. In all cases, P≤0.05 was considered to be significant.

[5] = Observation of side effects in all experiments with isolated CBDV and CBDV BDS; format: in vivo; details: all experiments using isolated CBDV and CBDV BDS
[6] = valproate (varying doses) co-administered with CBDV 200 mg/kg
[7] = CBDV 200 mg/kg with valproate at various doses

## C=C(C)[C@@H]1CCC(C)=C[C@H]1c1c(O)cc(CCC)cc1O [CBDV, Cannabidivarin]
[1]; CBDV 1 μM
  Burst amplitude (% of control) CA1: 82.23 ± 10.4 % of control
  Burst duration (% of control) CA1: 99.3 ± 4.5 % of control
  Burst amplitude (% of control) CA3: 112.7 ± 13.7 % of control
  Burst duration (% of control) CA3: 101.7 ± 2.3 % of control
  Burst amplitude (% of control) DG: 89.8 ± 8.6 % of control
  Burst duration (% of control) DG: 90.6 ± 4.5 % of control
[1]; CBDV 10 μM
  Burst amplitude (% of control) CA1: 79.9 ± 6.9 % of control
  Burst duration (% of control) CA1: 91.2 ± 3.8 % of control
  Burst amplitude (% of control) CA3: 104.8 ± 10.3 % of control
  Burst duration (% of control) CA3: 93.9 ± 4.1 % of control
  Burst amplitude (% of control) DG: 86.4 ± 3.6 % of control
  Burst duration (% of control) DG: 92.0 ± 3.2 % of control
[1]; CBDV 100 μM
  Burst amplitude (% of control) CA1: 80.4 ± 8.0 % of control
  Burst duration (% of control) CA1: 74.0 ± 5.8 % of control
  Burst amplitude (% of control) CA3: 102.9 ± 13.0 % of control
  Burst duration (% of control) CA3: 78.5 ± 6.6 % of control
  Burst amplitude (% of control) DG: 79.5 ± 5.6 % of control
  Burst duration (% of control) DG: 75.6 ± 5.4 % of control
[2]; CBDV 1 μM
  Burst amplitude (% of control) CA1: 89.3 ± 5.6 % of control
  Burst duration (% of control) CA1: 104.3 ± 8.0 % of control
  Burst amplitude (% of control) CA3: 103.0 ± 5.8 % of control
  Burst duration (% of control) CA3: 91.0 ± 6.0 % of control
  Burst amplitude (% of control) DG: 94.2 ± 3.0 % of control
  Burst duration (% of control) DG: 95.7 ± 5.9 % of control
[2]; CBDV 10 μM
  Burst amplitude (% of control) CA1: 88.3 ± 5.2 % of control
  Burst duration (% of control) CA1: 85.9 ± 6.2 % of control
  Burst amplitude (% of control) CA3: 121.9 ± 17.0 % of control
  Burst duration (% of control) CA3: 82.5 ± 4.8 % of control
  Burst amplitude (% of control) DG: 91.2 ± 4.9 % of control
  Burst duration (% of control) DG: 83.8 ± 4.4 % of control
[2]; CBDV 100 μM
  Burst amplitude (% of control) CA1: 89.5 ± 5.3 % of control
  Burst duration (% of control) CA1: 85.9 ± 5.8 % of control
  Burst amplitude (% of control) CA3: 110.3 ± 7.0 % of control
  Burst duration (% of control) CA3: 79.7 ± 5.4 % of control
  Burst amplitude (% of control) DG: 95.9 ± 4.3 % of control
  Burst duration (% of control) DG: 83.4 ± 4.1 % of control
PTZ-induced seizures; CBDV 200 mg/kg
  severity of the epilepsy, CBDV compared with SAED: lessen the severity of the epilepsy to a greater degree than the existing epileptic drug valproate
PTZ-induced seizures; [6]
  mortality (independent effect when co-administered): significant decreases
  onset latency (independent effect when co-administered): significant decreases
  seizure severity (independent effect when co-administered): significant decreases
[3]
  mortality: decreased
[4]; CBDV 200 mg/kg with phenobarbital at various doses
  seizure severity: significantly decreases
[4]; [7]
  mortality (independent effect): significant decrease
  seizure severity (independent effect): independent and positive effects
[4]; CBDV 200 mg/kg, particularly with high dose Valproate (250 mg/kg)
  bilateral seizure incidence: significantly decreased
[4]; CBDV 200 mg/kg, valproate study
  CBDV interaction (alone) with clonic tonic seizure: statistically significant
Motor function; 100 mg/kg CBDV
  time remaining on the rotarod (latency to fall): 86.6 s
Motor function; 200 mg/kg CBDV
  time remaining on the rotarod (latency to fall): 110.0 s
Motor function; CBDV at any dose (100, 200 mg/kg), P=0.253
  effect on the latency to fall compared to vehicle: no effect
[5]
  notable side effects: did not exhibit any notable side effects

Source: patent US10799467B2, “Use of the phytocannabinoid cannabidivarin (CBDV) in the treatment of epilepsy” (GW Pharma Limited, priority 2010, dated 2020)
